# DBAASP
# Experiments:
# Assay in all cases: ≥ marks a high value that may be exact or a test limit, other limits are often not marked, values filed in µg/mL are converted to µM
# [1] = system: Candida albicans ATCC 20032
# [2] = system: Staphylococcus aureus ATCC 25923
# [3] = system: Batrachochytrium dendrobatidis
# [4] = system: Escherichia coli ATCC 25922
# [5] = system: Bacillus subtilis ATCC 6633
# [6] = system: Staphylococcus aureus NCTC 8325
# Bacillus cereus = system: Bacillus cereus
# Leuconostoc lactis = system: Leuconostoc lactis
# Staphylococcus aureus = system: Staphylococcus aureus
# [7] = system: Staphylococcus epidermidis
# Escherichia coli = system: Escherichia coli
# Pasteurella multocida = system: Pasteurella multocida
# Micrococcus luteus = system: Micrococcus luteus
# Streptococcus uberis = system: Streptococcus uberis
# Listeria innocua = system: Listeria innocua
# [8] = system: Staphylococcus epidermidis ATCC 12228
# [9] = system: Salmonella enterica subsp. enterica serovar Typhimurium ATCC 14028
# [10] = system: Staphylococcus aureus ATCC 6538P
# [11] = system: Micrococcus luteus ATCC 10240
# [12] = system: Pseudomonas aeruginosa ATCC 27853
# [13] = system: Staphylococcus aureus TK784
# [14] = system: Klebsiella pneumoniae ATCC 10031
# [15] = system: Shigella dysenteriae ATCC 9752
# [16] = system: Streptococcus mitis ATCC 903
# [17] = system: Streptococcus gordonii Challis DL1
# Streptococcus mutans = system: Streptococcus mutans
# [18] = system: Veillonella atypica PK1910
# [19] = system: Streptococcus sanguinis NY101
# [20] = system: Lacticaseibacillus casei ATCC 4646
SMILES,MIC [3] [µM],MIC [4] [µM],MIC [5] [µM],MIC [8] [µM],MIC [9] [µM],MIC [10] [µM],MIC [11] [µM],MIC [12] [µM],MIC [13] [µM],MIC [14] [µM],MIC [15] [µM],also measured
CC[C@H](C)[C@@H]1NC(=O)[C@H](CO)NC(=O)[C@H](CCCCN)NC(=O)[C@H]([C@@H](C)O)NC(=O)[C@H](Cc2c[nH]c3ccccc23)NC(=O)[C@@H](NC(=O)CNC(=O)[C@H](CCCCN)NC(=O)[C@H](CC(C)C)NC(=O)[C@H](C)NC(=O)[C@H](C)N)CSSC[C@@H](C(=O)N[C@@H](CO)C(=O)NCC(=O)N[C@@H](CCCCN)C(=O)N[C@@H](CCCN=C(N)N)C(=O)O)NC(=O)[C@@H]2CCCN2C(=O)[C@H](CCCCN)NC(=O)[C@@H]2CCCN2C(=O)[C@@H]2CCCN2C1=O [AALKGCWTKSIPPKPCSGKR],–,–,–,–,–,–,–,–,–,–,–,MIC [1]: 23.4 µM; MIC [2]: 11.7 µM
CC[C@H](C)[C@H](NC(=O)CN)C(=O)NCC(=O)NCC(=O)N[C@@H](CCCCN)C(=O)N[C@H](C(=O)N[C@@H](CC(C)C)C(=O)NCC(=O)NCC(=O)N[C@@H](CC(C)C)C(=O)N[C@@H](CCCN=C(N)N)C(=O)N[C@H](C(=O)N[C@@H](C)C(=O)N[C@@H](CC(C)C)C(=O)N[C@@H](CCCCN)C(=O)NCC(=O)N[C@@H](C)C(=O)N[C@@H](C)C(=O)N[C@@H](CCCCN)C(=O)N[C@@H](CCC(=O)O)C(=O)N[C@@H](CC(C)C)C(=O)N[C@@H](C)C(=O)N[C@@H](C)C(=O)N[C@H](C(=O)N[C@@H](Cc1ccc(O)cc1)C(=O)N[C@@H](CC(C)C)C(=O)N[C@@H](Cc1cnc[nH]1)C(N)=O)[C@@H](C)O)[C@@H](C)O)[C@@H](C)CC [GIGGKILGGLRTALKGAAKELAATYLH],–,3.51,28,–,–,–,–,–,–,–,–,MIC [1]: ≥ 37.3 µM; MIC [2]: 1.75 µM
CC[C@H](C)[C@H](NC(=O)CN)C(=O)N[C@@H](CC(C)C)C(=O)N[C@@H](CO)C(=O)N[C@H](C(=O)N[C@@H](Cc1ccccc1)C(=O)N[C@@H](CCCCN)C(=O)NCC(=O)N[C@@H](CC(C)C)C(=O)N[C@@H](C)C(=O)N[C@@H](CCCCN)C(=O)NCC(=O)N[C@H](C(=O)N[C@@H](C)C(=O)N[C@@H](CCCCN)C(=O)N[C@@H](CC(=O)O)C(=O)N[C@@H](CC(C)C)C(=O)N[C@@H](C)C(=O)NCC(=O)N[C@@H](CC(N)=O)C(=O)N[C@@H](CC(C)C)C(=O)N[C@@H](CC(C)C)C(=O)N[C@@H](CC(=O)O)C(=O)N[C@@H](CCCCN)C(=O)N[C@@H](Cc1ccccc1)C(=O)N[C@@H](CCCCN)C(=O)N[C@H]1CSSC[C@@H](C(=O)O)NC(=O)CNC(=O)[C@H]([C@@H](C)O)NC(=O)[C@H]([C@@H](C)CC)NC(=O)[C@H](CCCCN)NC1=O)C(C)C)[C@@H](C)O [GILSTFKGLAKGVAKDLAGNLLDKFKCKITGC],25,7,–,–,–,–,–,–,–,–,–,MIC [6]: 27 µM
NCCCC[C@H](NC(=O)[C@H](Cc1ccccc1)NC(=O)CNC(=O)CNC(=O)CNC(=O)[C@H](Cc1ccccc1)NC(=O)[C@H](Cc1c[nH]c2ccccc12)NC(=O)[C@H](CCCN=C(N)N)NC(=O)[C@H](Cc1c[nH]c2ccccc12)NC(=O)[C@H](CCCN=C(N)N)NC(=O)[C@H](Cc1c[nH]c2ccccc12)NC(=O)[C@@H](N)CCCN=C(N)N)C(=O)N[C@@H](CCCCN)C(=O)N[C@@H](Cc1ccccc1)C(=O)N[C@@H](Cc1c[nH]c2ccccc12)C(=O)N[C@@H](CCCCN)C(=O)N[C@@H](Cc1c[nH]c2ccccc12)C(=O)N[C@@H](Cc1ccccc1)C(=O)N[C@@H](CCCN=C(N)N)C(=O)N[C@@H](CCCN=C(N)N)C(=O)N[C@@H](Cc1ccccc1)C(N)=O [RWRWRWFGGGFKKFWKWFRRF],–,–,–,–,–,–,–,–,–,–,–,MIC [16]: 21.2 µM; MIC [17]: 5.3 µM; MIC (Streptococcus mutans): 1.87 µM; MIC [18]: 2.65 µM; MIC [19]: 2.65 µM; MIC [20]: 2.65 µM
CC(C)C[C@H](NC(=O)CNC(=O)CNC(=O)CNC(=O)[C@H](Cc1ccccc1)NC(=O)[C@H](Cc1c[nH]c2ccccc12)NC(=O)[C@H](CCCN=C(N)N)NC(=O)[C@H](Cc1c[nH]c2ccccc12)NC(=O)[C@H](CCCN=C(N)N)NC(=O)[C@H](Cc1c[nH]c2ccccc12)NC(=O)[C@@H](N)CCCN=C(N)N)C(=O)N[C@@H](CCCCN)C(=O)N[C@@H](CCCN=C(N)N)C(=O)N[C@@H](Cc1ccccc1)C(=O)N[C@@H](CC(C)C)C(=O)N[C@@H](CCCCN)C(=O)N[C@@H](Cc1c[nH]c2ccccc12)C(=O)N[C@@H](Cc1ccccc1)C(=O)N[C@@H](CCCCN)C(=O)N[C@@H](CCCN=C(N)N)C(=O)N[C@@H](Cc1ccccc1)C(N)=O [RWRWRWFGGGLKRFLKWFKRF],–,–,–,–,–,–,–,–,–,–,–,MIC [16]: 22 µM; MIC [17]: 11 µM; MIC (Streptococcus mutans): 2.74 µM; MIC [18]: 5.49 µM; MIC [19]: 5.49 µM; MIC [20]: 2.74 µM

# Further lines, with some results ahead:
MIC [3] [µM],MIC [4] [µM],MIC [5] [µM],MIC [8] [µM],MIC [9] [µM],MIC [10] [µM],MIC [11] [µM],MIC [12] [µM],MIC [13] [µM],MIC [14] [µM],MIC [15] [µM],SMILES,also measured
≥ 32.2,–,–,–,–,–,–,–,–,–,–,CC[C@H](C)[C@H](NC(=O)[C@@H](NC(=O)[C@@H]1CCCN1C(=O)[C@H](CC(C)C)NC(=O)[C@@H](N)Cc1ccccc1)[C@@H](C)CC)C(=O)N[C@@H](C)C(=O)N[C@@H](CO)C(=O)N[C@@H](CC(C)C)C(=O)N[C@@H](CC(C)C)C(=O)N[C@@H](CO)C(=O)N[C@@H](CCCCN)C(=O)N[C@@H](CC(C)C)C(=O)N[C@@H](CC(C)C)C(N)=O [FLPIIASLLSKLL],–
≥ 141,–,–,–,–,–,–,–,–,–,–,CC[C@H](C)[C@H](NC(=O)[C@@H](NC(=O)[C@H](C)NC(=O)[C@H](C)NC(=O)[C@@H](NC(=O)[C@H](CCCCN)NC(=O)[C@H](CCCCN)NC(=O)[C@@H](NC(=O)[C@@H](NC(=O)[C@H](C)NC(=O)[C@H](Cc1ccccc1)NC(=O)[C@H](CC(C)C)NC(=O)CN)C(C)C)[C@@H](C)CC)C(C)C)C(C)C)C(=O)N[C@@H](CCCCN)C(=O)N[C@@H](CCCCN)C(=O)N[C@@H](CC(C)C)C(N)=O [GLFAVIKKVAAVIKKL],MIC (Bacillus cereus): ≥ 58.9 µM; MIC (Leuconostoc lactis): 0.883 µM; MIC (Staphylococcus aureus): 14.7 µM; MIC [7]: 1.77 µM; MIC (Escherichia coli): 58.9 µM; MIC (Pasteurella multocida): ≥ 58.9 µM; MIC (Micrococcus luteus): 14.7 µM; MIC (Streptococcus uberis): 7.07 µM; MIC (Listeria innocua): 7.07 µM
–,1.42,1.42,1.42,2.84,1.42,2.84,5.67,11.3,1.42,1.42,CC(C)C[C@H](NC(=O)[C@H](CCCCN)NC(=O)[C@H](CCCCN)NC(=O)[C@H](CC(C)C)NC(=O)[C@H](Cc1c[nH]c2ccccc12)NC(=O)[C@H](CCCCN)NC(=O)[C@H](CC(C)C)NC(=O)[C@H](CC(C)C)NC(=O)[C@H](CCCCN)NC(=O)[C@H](CCCCN)NC(=O)[C@@H](N)CC(C)C)C(N)=O [LKKLLKWLKKL],–
–,32.2,≥ 32.2,32.2,> 64.4,8.05,≥ 64.4,32.2,≥ 64.4,≥ 64.4,≥ 64.4,CC(C)C[C@H](NC(=O)[C@H](Cc1c[nH]c2ccccc12)NC(=O)[C@H](CCCCN)NC(=O)[C@H](CCCCN)NC(=O)[C@H](CC(C)C)NC(=O)[C@H](Cc1c[nH]c2ccccc12)NC(=O)[C@H](CCCCN)NC(=O)[C@@H](N)CC(C)C)C(=O)N[C@@H](CCCCN)C(N)=O [LKWLKKWLK],–
–,2.84,1.42,1.42,1.42,1.42,2.84,5.67,5.67,1.42,1.42,CC(C)C[C@H](NC(=O)[C@H](CC(C)C)NC(=O)[C@H](CCCCN)NC(=O)[C@H](CCCCN)NC(=O)[C@H](CC(C)C)NC(=O)[C@H](CC(C)C)NC(=O)[C@H](CCCCN)NC(=O)[C@H](CCCCN)NC(=O)[C@H](CC(C)C)NC(=O)[C@@H](N)Cc1c[nH]c2ccccc12)C(=O)N[C@@H](CCCCN)C(N)=O [WLKKLLKKLLK],–
